The target of assay [1] is T1, full length human wildtype Btk (Homo sapiens, UniProt Q06187).
T1 construct: V5 (C); 6xHis (C); made in house; host or cells: Sf9 insect cells (baculovirus, pFastBac)
Briefly: Biochemical Btk Assay (BTK LC3K). The note with it: Table 2. The method, then: A generalized procedure for a standard biochemical Btk, Kinase Assay that can be used to test Formula I compounds is as follows. A master mix minus Btk enzyme is prepared containing 1× Cell Signaling kinase buffer (25 mM Tris-HCl, pH 7.5, 5 mM beta-glycerophosphate, 2 mM dithiothreitol, 0.1 mM Na3VO4, 10 mM MgCl2), 0.5 μM Promega PTK Biotinylated peptide substrate 2, and 0.01% BSA. A master mix plus Btk enzyme is prepared containing 1× Cell Signaling kinase buffer, 0.5 μM (micromolar) PTK Biotinylated peptide substrate 2, 0.01% BSA, and 100 ng/well (0.06 mU/well) Btk enzyme. Btk enzyme is prepared as follows: full length human wildtype Btk (accession number NM-000061) with a C-terminal V5 and 6×His tag was subcloned into pFastBac® vector (Invitrogen/Life Technologies) for making baculovirus carrying this epitope-tagged Btk. […] Passage 3 virus is used to infect Sf9 cells to overexpress the recombinant Btk protein. The Btk protein is then purified to homogeneity using Ni-NTA column. […] A solution of 200 μM ATP is prepared in water and adjusted to pH 7.4 with 1N NaOH. A quantity of 1.25 μL (microliter) of compounds in 5% DMSO is transferred to a 96-well ½ area Costar polystyrene plate. Compounds are tested singly and with an 11-point dose-responsive curve (starting concentration is 10 μM; 1:2 dilution). A quantity of 18.75 μL of master mix minus enzyme (as a negative control) and master mix plus enzyme is transferred to appropriate wells in 96-well ½ area costar polystyrene plate. 5 μL of 200 μM ATP is added to that mixture in the 96-well ½ area Costar polystyrene plate for final ATP concentration of 40 μM. The reaction is allowed to incubate for 1 hour at room temperature. The reaction is stopped with Perkin Elmer 1× detection buffer containing 30 mM EDTA, 20 nM SA-APC, and 1 nM PT66 Ab. […] IC50 values are subsequently calculated. Alternatively, the Lanthascreen assay can be used to evaluate Btk activity through quantification of its phosphorylated peptide product. The FRET (Fluorescence Resonance Energy Transfer) that occurs between the fluorescein on the peptide product and the terbium on the detection antibody decreases with the addition of inhibitors of Btk that reduce the phosphorylation of the peptide. In a final reaction volume of 25 uL, Btk (h) (0.1 ng/25 ul reaction) is incubated with 50 mM Hepes pH 7.5, 10 mM MgCl2, 2 mM MnCl2, 2 mM DTT, 0.2 mM NaVO4, 0.01% BSA, and 0.4 uM fluorescein poly-GAT. […] After incubation for 60 minutes at room temperature, the reaction is stopped by the addition of a final concentration of 2 nM Tb-PY20 detection antibody in 60 mM EDTA for 30 minutes at room temperature.

Assay [2] deals with CD69 by B lymphocytes in human whole blood activated with goat F(ab')2 anti-human IgM. As to the kind of experiment: CD69 Whole Blood Assay (CD69 Hu Blood FACS). Format: cell-based. The note with it: Lymphocyte, Table 2, anti-IgM stimulation, CD69 positive of CD20 positive cells. How it is done:
CD69 is a type II C-type lectin involved in lymphocyte migration and cytokine secretion.
Human blood is obtained from healthy volunteers, with the following restrictions: 1 week drug-free, non-smokers. Blood (approximately 20 mls to test 8 compounds) is collected by venipuncture into Vacutainer® (Becton, Dickinson and Co.) tubes with sodium heparin.
Solutions of Formula I compounds at 10 mM in DMSO are diluted 1:10 in 100% DMSO, then are diluted by three-fold serial dilutions in 100% DMSO for a ten point dose-response curve. The compounds are further diluted 1:10 in PBS and then an aliquot of 5.5 μl of each compound is added in duplicate to a 2 ml 96-well plate; 5.5 μl of 10% DMSO in PBS is added as control and no-stimulus wells. Human whole blood—HWB (100 μl) is added to each well. After mixing the plates are incubated at 37° C., 5% CO2, 100% humidity for 30 minutes. Goat F(ab′)2 anti-human IgM (10 μl of a 500 μg/ml solution, 50 μg/ml final) is added to each well (except the no-stimulus wells) with mixing and the plates are incubated for an additional 20 hours. At the end of the 20 hour incubation, samples are incubated with fluorescent labeled antibodies for 30 minutes, at 37° C., 5% CO2, 100% humidity. Include induced control, unstained and single stains for compensation adjustments and initial voltage settings. Samples are then lysed with PharM Lyse™ (BD Biosciences Pharmingen) according to the manufacturer's instructions. Samples are then transferred to a 96 well plate suitable to be run on the BD Biosciences HTS 96 well system on the LSRII machine. Data acquired and Mean Fluorescence Intensity values were obtained using BD Biosciences DIVA Software. Results are initially analyzed by FACS analysis software (Flow Jo).

T1 sequence (Q06187 whole entry): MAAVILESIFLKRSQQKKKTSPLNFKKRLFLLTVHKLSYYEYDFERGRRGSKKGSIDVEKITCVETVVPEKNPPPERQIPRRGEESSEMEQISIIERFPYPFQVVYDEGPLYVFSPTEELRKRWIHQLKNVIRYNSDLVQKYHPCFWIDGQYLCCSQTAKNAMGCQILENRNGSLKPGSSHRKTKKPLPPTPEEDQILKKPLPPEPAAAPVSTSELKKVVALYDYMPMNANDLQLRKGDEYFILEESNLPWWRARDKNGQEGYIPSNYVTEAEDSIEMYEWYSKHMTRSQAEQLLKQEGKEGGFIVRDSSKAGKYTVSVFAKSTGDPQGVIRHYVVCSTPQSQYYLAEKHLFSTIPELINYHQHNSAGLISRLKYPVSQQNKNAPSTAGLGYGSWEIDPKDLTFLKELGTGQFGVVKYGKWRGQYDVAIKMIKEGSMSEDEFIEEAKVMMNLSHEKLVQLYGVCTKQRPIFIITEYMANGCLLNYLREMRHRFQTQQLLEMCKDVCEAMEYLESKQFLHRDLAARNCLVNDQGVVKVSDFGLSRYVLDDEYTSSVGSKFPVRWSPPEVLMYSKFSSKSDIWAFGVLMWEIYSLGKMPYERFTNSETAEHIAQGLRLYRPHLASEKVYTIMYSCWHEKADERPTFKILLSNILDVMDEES

As to `CCOC1C[C@@H]1C(=O)Nc1cc(-c2ccnc(N3CCn4c(cc5c4CC(C)(C)C5)C3=O)c2CO)cn(C)c1=O` (mixture of isomers) [Compound 145, (1S)—N-[5-[2-(7,7-dimethyl-4-oxo-1,2,6,8-tetrahydrocyclopenta[3,4]pyrrolo[3,5-b]pyrazin-3-yl)-3-(hydroxymethyl)-4-pyridyl]-1-methyl-2-oxo-3-pyridyl]-2-ethoxy-cyclopropanecarboxamide], affinity in assay [1] was put at a Ki of 11 nM. For the same compound, the IC50 (commonly the concentration at which inhibition is half-maximal) in assay [2] was 636 nM.

For the compound `Cn1cc(-c2ccnc(N3CCn4c(cc5c4CC(C)(C)C5)C3=O)c2CO)cc(NC(=O)[C@@H]2CC23CC3)c1=O` (single isomer, unassigned) [Compound 140], the Ki (commonly the dissociation constant of the complex between target and ligand, obtained from inhibition or displacement) in assay [1] came to 5.2 nM. Besides, in assay [2], the IC50 worked out at 1400 nM.

The compound `Cn1cc(-c2ccnc(N3CCn4c(cc5c4CC(C)(C)C5)C3=O)c2CO)cc(NC(=O)[C@H]2CC23CC3)c1=O` (single isomer, unassigned) [Compound 141] gave a Ki in assay [1] of 5.8 nM. The compound further showed an IC50 in assay [2] of 1600 nM.

In assay [1], `CCOC1C[C@H]1C(=O)Nc1cc(-c2ccnc(N3CCn4c(cc5c4CC(C)(C)C5)C3=O)c2CO)cn(C)c1=O` (single isomer, unassigned) [Compound 143] had an inhibition constant Ki of 53 nM. The compound further yielded an IC50 in assay [2] of 2200 nM.

Consider `Cn1cc(-c2ccnc(N3CCn4c(cc5c4CC(C)(C)C5)C3=O)c2CO)cc(NC(=O)[C@@H]2CC23CCC3)c1=O` (single isomer, unassigned) [Compound 146], for which, in assay [1], the affinity, expressed as Ki, was 17 nM. In assay [2], this compound displayed an IC50 of 5200 nM.

`Cn1cc(-c2ccnc(N3CCn4c(cc5c4CC(C)(C)C5)C3=O)c2CO)cc(NC(=O)[C@H]2CC23CCC3)c1=O` (single isomer, unassigned) [Compound 147] came in with a Ki in assay [1] of 4.8 nM. Besides, in assay [2], the IC50 was 910 nM.

In the case of `Cn1cc(-c2ccnc(-n3ncc4cc(C(C)(C)C)cc(F)c4c3=O)c2CO)cc(NC(=O)[C@@H]2CC23CC3)c1=O` (single isomer, unassigned) [Compound 161], the Ki in assay [1] came to 3.7 nM. The compound also came in with an IC50 in assay [2] of 338 nM.

For the compound `Cn1cc(-c2ccnc(-n3ncc4cc(C(C)(C)C)cc(F)c4c3=O)c2CO)cc(NC(=O)[C@H]2CC23CC3)c1=O` (single isomer, unassigned) [Compound 162], the affinity in assay [1] corresponds to a Ki of 5 nM. This compound yielded an IC50 in assay [2] of 786 nM.

For `CN1CCC2(CC1)C[C@H]2C(=O)Nc1cc(-c2ccnc(-n3ncc4cc(C(C)(C)C)cc(F)c4c3=O)c2CO)cn(C)c1=O` (single isomer, unassigned) [Compound 165], the Ki in assay [1] amounted to 40.8 nM. For the same compound, the IC50 in assay [2] was above 4800 nM.

Turning to `CN1CCC2(CC1)C[C@@H]2C(=O)Nc1cc(-c2ccnc(-n3ncc4cc(C(C)(C)C)cc(F)c4c3=O)c2CO)cn(C)c1=O` (single isomer, unassigned) [Compound 166], the Ki in assay [1] worked out at 5.4 nM. Also, the IC50 in assay [2] was determined as 1600 nM.

As for `CN1CC[C@]2(C[C@H]2C(=O)Nc2cc(-c3ccnc(-n4ncc5cc(C(C)(C)C)cc(F)c5c4=O)c3CO)cn(C)c2=O)C1` (single isomer, unassigned) [Compound 169], the Ki in assay [1] turned out to be 38.4 nM. The compound further came in with an IC50 in assay [2] above 4800 nM.

The compound `CN(C)C(=O)C1C[C@H]1C(=O)Nc1cc(-c2ccnc(-n3ncc4cc(C(C)(C)C)cc(F)c4c3=O)c2CO)cn(C)c1=O` (single isomer, unassigned) [Compound 170, N2-[5-[2-(6-tert-butyl-8-fluoro-1-oxo-phthalazin-2-yl)-3-(hydroxymethyl)-4-pyridyl]-1-methyl-2-oxo-3-pyridyl]-N1,N1-dimethyl-cyclopropane-1,2-dicarboxamide] registered a Ki in assay [1] of 25 nM. Also, the IC50 in assay [2] is above 4800 nM.

Regarding `CN(C)C(=O)C1C[C@@H]1C(=O)Nc1cc(-c2ccnc(-n3ncc4cc(C(C)(C)C)cc(F)c4c3=O)c2CO)cn(C)c1=O` (single isomer, unassigned) [Compound 171, N2-[5-[2-(6-tert-butyl-8-fluoro-1-oxo-phthalazin-2-yl)-3-(hydroxymethyl)-4-pyridyl]-1-methyl-2-oxo-3-pyridyl]-N1,N1-dimethyl-cyclopropane-1,2-dicarboxamide], the Ki in assay [1] amounted to 91.5 nM. In assay [2], this compound showed an IC50 above 4800 nM.

(Values after patent publication US9326985B2, “Heteroaryl pyridone and aza-pyridone amide compounds” (Genentech, Inc., priority 2013, dated 2016).)
